According to article PMC5766609 (Scientific Reports, 2018):
Residues, ends and D or L forms follow the SMILES beside them.

How the values were obtained:
[1] = target: T1, human GLP-1 receptor (GLP1R) (Homo sapiens, UniProt P43220); test: cAMP assay on CHO-JumpIn cells stably transfected with human GLP-1 receptor (HitHunter cAMP); assay type: cell-based; conditions: Table 2, cAMP accumulation, buffer PBS, 0.1% BSA, 100 μM RO 20-1724, 20% serum, 1 hr at RT, value ± spread, read-out: EC50 GLP1R;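 note: peptides tested as 4-fold serial dilution series, cells exposed 1 hr at RT in the dark, cAMP quantified against a cAMP standard calibration curve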
T1 construct: expressed in transfected cells; host or cells: CHO-JumpIn cells, stably transfected
T1 sequence (P43220 24-463): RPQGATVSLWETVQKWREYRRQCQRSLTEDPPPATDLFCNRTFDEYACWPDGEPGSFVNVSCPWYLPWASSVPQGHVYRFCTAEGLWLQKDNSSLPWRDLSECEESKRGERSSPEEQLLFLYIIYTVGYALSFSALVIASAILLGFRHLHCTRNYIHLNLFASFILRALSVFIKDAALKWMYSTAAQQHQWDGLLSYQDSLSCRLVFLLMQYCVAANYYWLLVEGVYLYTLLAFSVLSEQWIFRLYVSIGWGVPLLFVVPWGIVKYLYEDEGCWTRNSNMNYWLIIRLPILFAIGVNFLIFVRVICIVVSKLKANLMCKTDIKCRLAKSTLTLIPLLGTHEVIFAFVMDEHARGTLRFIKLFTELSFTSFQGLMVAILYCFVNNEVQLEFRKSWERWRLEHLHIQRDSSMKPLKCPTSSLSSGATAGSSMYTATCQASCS
Procedure: (§1) Briefly, a 2 μM solution of peptide was prepared, and 4-fold serial dilutions were made. 150 nL of the above titration was then dispensed into an Optiplate384 using an Echo555. […] The HitHunter® cAMP Assay kit calibration curve was prepared following the manufacturer’s protocol (DiscoveRx-90-0075L). 30,000 cells/well were added to the peptides, spun briefly at 500 rpm for 15 s and incubated at RT in the dark for 1 hr. The assay was developed as per the manufacturer’s instructions. cAMP accumulation due to GLP1R agonism or GCGR agonism was measured using an EnVision platereader (PerkinElmer), and calibrated using the cAMP standard curve. Data were analyzed using Assay Data Analyzer (ADA).

[2] = target: T2, human glucagon receptor (GCGR) (Homo sapiens, UniProt P47871); test: cAMP assay on CHO-JumpIn cells stably transfected with human glucagon receptor (HitHunter cAMP); assay type: cell-based; conditions: Table 2; cAMP accumulation, CHO-JumpIn cells with human GCGR, buffer PBS, 0.1% BSA, 100 μM RO 20-1724, 20% serum; 1 hr at RT; value ± spread; read-out: EC50 GCGR;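 note: peptides tested as 4-fold serial dilutions starting from a 2 µM solution, cells exposed 1 hr at RT in darkness, cAMP quantified against a cAMP standard curve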
T2 construct: expressed in transfected cells; host or cells: CHO-JumpIn cells, stably transfected
T2 sequence (P47871 26-477): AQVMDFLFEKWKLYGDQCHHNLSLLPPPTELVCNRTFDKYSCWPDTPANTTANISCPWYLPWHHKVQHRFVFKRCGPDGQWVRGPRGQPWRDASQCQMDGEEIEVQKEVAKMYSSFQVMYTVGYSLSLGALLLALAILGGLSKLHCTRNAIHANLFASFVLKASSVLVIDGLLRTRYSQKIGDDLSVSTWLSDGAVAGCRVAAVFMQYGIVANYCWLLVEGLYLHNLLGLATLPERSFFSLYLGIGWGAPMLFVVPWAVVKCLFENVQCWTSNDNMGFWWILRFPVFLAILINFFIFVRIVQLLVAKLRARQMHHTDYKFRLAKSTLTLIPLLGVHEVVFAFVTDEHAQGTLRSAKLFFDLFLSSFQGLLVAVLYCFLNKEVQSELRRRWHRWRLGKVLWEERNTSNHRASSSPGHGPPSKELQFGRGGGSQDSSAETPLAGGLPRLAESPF
Procedure: as §1

Row | Compound | EC50 [1] [nM] | EC50 [2] [nM]
1 | CC(C)C[C@H](NC(=O)[C@H](Cc1ccc(O)cc1)NC(=O)[C@H](CCCCN)NC(=O)[C@H](CO)NC(=O)[C@H](Cc1ccc(O)cc1)NC(=O)[C@H](CC(=O)O)NC(=O)[C@H](CO)NC(=O)[C@@H](NC(=O)[C@H](Cc1ccccc1)NC(=O)[C@@H](NC(=O)CNC(=O)[C@H](CCC(N)=O)NC(=O)[C@H](CO)NC(=O)[C@@H](N)Cc1c[nH]cn1)[C@@H](C)O)[C@@H](C)O)C(=O)N[C@@H](CC(=O)O)C(=O)N[C@@H](Cc1c[nH]c2ccccc12)C(=O)N[C@@H](CCCNC(=N)N)C(=O)N[C@@H](CCCNC(=N)N)C(=O)N[C@@H](C)C(=O)N[C@@H](CCC(N)=O)C(=O)N[C@@H](CC(=O)O)C(=O)N[C@@H](Cc1ccccc1)C(=O)N[C@H](C(=O)N[C@@H](CCC(N)=O)C(=O)N[C@@H](Cc1c[nH]c2ccccc12)C(=O)N[C@@H](CC(C)C)C(=O)N[C@@H](CC(C)C)C(=O)N[C@@H](CC(N)=O)C(=O)N[C@H](C(N)=O)[C@@H](C)O)C(C)C [Peptide 6] | 0.063 ± 0.034 | 0.032 ± 0.013
2 | CSCC[C@H](NC(=O)[C@H](CC(C)C)NC(=O)[C@H](Cc1c[nH]c2ccccc12)NC(=O)[C@H](CCC(N)=O)NC(=O)[C@@H](NC(=O)[C@H](Cc1ccccc1)NC(=O)[C@H](CC(=O)O)NC(=O)[C@H](CCC(N)=O)NC(=O)[C@H](C)NC(=O)[C@H](CCCNC(=N)N)NC(=O)[C@H](CCCNC(=N)N)NC(=O)[C@H](CO)NC(=O)[C@H](CC(=O)O)NC(=O)[C@H](CC(C)C)NC(=O)[C@H](Cc1ccc(O)cc1)NC(=O)[C@H](CCCCN)NC(=O)[C@H](CO)NC(=O)[C@H](Cc1ccc(O)cc1)NC(=O)[C@H](CC(=O)O)NC(=O)[C@H](CO)NC(=O)[C@H](Cc1c[nH]c2ccccc12)NC(=O)[C@H](Cc1ccccc1)NC(=O)[C@H](CC(N)=O)NC(=O)CNC(=O)[C@@H](NC(=O)[C@H](CO)NC(=O)[C@@H](N)Cc1c[nH]cn1)C(C)C)C(C)C)C(=O)N[C@@H](CC(C)C)C(=O)N[C@H](C(N)=O)[C@@H](C)O [Peptide 1] (H-HSVGNFWSDYSKYLDSRRAQDFVQWLMLT-NH2) | 16.7 ± 10.3 | 8.45 ± 2.67
3 | CC(C)C[C@H](NC(=O)[C@H](Cc1ccc(O)cc1)NC(=O)[C@H](CCCCN)NC(=O)[C@H](CO)NC(=O)[C@H](Cc1ccc(O)cc1)NC(=O)[C@H](CC(=O)O)NC(=O)[C@H](CO)NC(=O)[C@@H](NC(=O)[C@H](Cc1ccccc1)NC(=O)[C@@H](NC(=O)CNC(=O)[C@H](CCC(N)=O)NC(=O)[C@H](CO)NC(=O)[C@@H](N)Cc1c[nH]cn1)[C@@H](C)O)[C@@H](C)O)C(=O)N[C@@H](CC(=O)O)C(=O)N[C@@H](Cc1c[nH]c2ccccc12)C(=O)N[C@@H](CCCNC(=N)N)C(=O)N[C@@H](CCCNC(=N)N)C(=O)N[C@@H](C)C(=O)N[C@@H](CCC(N)=O)C(=O)N[C@@H](CC(=O)O)C(=O)N[C@@H](Cc1ccccc1)C(=O)N[C@H](C(=O)N[C@@H](CCC(N)=O)C(=O)N[C@@H](Cc1c[nH]c2ccccc12)C(=O)N[C@@H](CC(C)C)C(=O)N[C@@H](CCC(N)=O)C(=O)N[C@@H](CC(N)=O)C(=O)N[C@H](C(N)=O)[C@@H](C)O)C(C)C [Peptide 23] | 0.017 ± 0.001 | 0.019 ± 0.001
4 | CC[C@H](C)[C@H](NC(=O)[C@H](CC(C)C)NC(=O)[C@H](Cc1c[nH]c2ccccc12)NC(=O)[C@H](CCC(N)=O)NC(=O)[C@@H](NC(=O)[C@H](Cc1ccccc1)NC(=O)[C@H](CC(=O)O)NC(=O)[C@H](CCC(N)=O)NC(=O)[C@H](C)NC(=O)[C@H](CCCNC(=N)N)NC(=O)[C@H](CCCNC(=N)N)NC(=O)[C@H](C)NC(=O)[C@H](CC(=O)O)NC(=O)[C@H](CC(C)C)NC(=O)[C@H](Cc1ccc(O)cc1)NC(=O)[C@H](CCCCN)NC(=O)[C@H](CO)NC(=O)[C@H](Cc1ccc(O)cc1)NC(=O)[C@H](CC(=O)O)NC(=O)[C@H](CO)NC(=O)[C@@H](NC(=O)[C@H](Cc1ccccc1)NC(=O)[C@@H](NC(=O)CNC(=O)[C@H](CCC(N)=O)NC(=O)[C@H](CO)NC(=O)[C@@H](N)Cc1c[nH]cn1)[C@@H](C)O)[C@@H](C)O)C(C)C)C(=O)N[C@@H](CCCNC(=N)N)C(=O)N[C@H](C(N)=O)[C@@H](C)O [Peptide 8] | 0.017 ± 0.001 | 0.038 ± 0.01
5 | CC(C)C[C@H](NC(=O)[C@H](Cc1ccc(O)cc1)NC(=O)[C@H](CCCCN)NC(=O)[C@H](CO)NC(=O)[C@H](Cc1ccc(O)cc1)NC(=O)[C@H](CC(=O)O)NC(=O)[C@H](CO)NC(=O)[C@@H](NC(=O)[C@H](Cc1ccccc1)NC(=O)[C@@H](NC(=O)CNC(=O)[C@H](CCC(N)=O)NC(=O)[C@H](CO)NC(=O)[C@@H](N)Cc1c[nH]cn1)[C@@H](C)O)[C@@H](C)O)C(=O)N[C@@H](CC(=O)O)C(=O)N[C@@H](CO)C(=O)N[C@@H](CCCNC(=N)N)C(=O)N[C@@H](CCCNC(=N)N)C(=O)N[C@@H](C)C(=O)N[C@@H](Cc1c[nH]cn1)C(=O)N[C@@H](CC(=O)O)C(=O)N[C@@H](Cc1ccccc1)C(=O)N[C@H](C(=O)N[C@@H](CCC(N)=O)C(=O)N[C@@H](Cc1c[nH]c2ccccc12)C(=O)N[C@@H](CC(C)C)C(=O)N[C@@H](CC(C)C)C(=O)N[C@@H](CC(N)=O)C(=O)N[C@H](C(N)=O)[C@@H](C)O)C(C)C [Peptide 11] (H-HSQGTFTSDYSKYLDSRRAHDFVQWLLNT-NH2) | 0.018 ± 0.001 | 0.018 ± 0.005
6 | CC[C@H](C)[C@H](NC(=O)[C@H](CC(C)C)NC(=O)[C@H](Cc1c[nH]c2ccccc12)NC(=O)[C@H](CCC(N)=O)NC(=O)[C@@H](NC(=O)[C@H](Cc1ccccc1)NC(=O)[C@H](CC(=O)O)NC(=O)[C@H](CCC(N)=O)NC(=O)[C@H](C)NC(=O)[C@H](CCCNC(=N)N)NC(=O)[C@H](CCCNC(=N)N)NC(=O)[C@H](CO)NC(=O)[C@H](CC(=O)O)NC(=O)[C@H](CC(C)C)NC(=O)[C@H](Cc1ccc(O)cc1)NC(=O)[C@H](CCCCN)NC(=O)[C@H](CO)NC(=O)[C@H](Cc1ccc(O)cc1)NC(=O)[C@H](CC(=O)O)NC(=O)[C@H](CO)NC(=O)[C@@H](NC(=O)[C@H](Cc1ccccc1)NC(=O)[C@@H](NC(=O)CNC(=O)[C@H](CCC(N)=O)NC(=O)[C@H](CO)NC(=O)[C@@H](N)Cc1c[nH]cn1)[C@@H](C)O)[C@@H](C)O)C(C)C)C(=O)N[C@@H](CC(N)=O)C(=O)N[C@@H](Cc1ccc(O)cc1)C(N)=O [Peptide 13] | 0.039 ± 0.008 | 0.078 ± 0.05

Other lines, results leading:

Row | EC50 [1] [nM] | EC50 [2] [nM] | Compound
7 | 0.059 ± 0.003 | 0.079 ± 0.033 | CSCC[C@H](NC(=O)[C@H](CCCNC(=N)N)NC(=O)[C@H](CO)NC(=O)[C@H](CC(=O)O)NC(=O)[C@H](CC(C)C)NC(=O)[C@H](Cc1ccc(O)cc1)NC(=O)[C@H](CCCCN)NC(=O)[C@H](CO)NC(=O)[C@H](Cc1ccc(O)cc1)NC(=O)[C@H](CC(=O)O)NC(=O)[C@H](CO)NC(=O)[C@@H](NC(=O)[C@H](Cc1ccccc1)NC(=O)[C@@H](NC(=O)CNC(=O)[C@H](CCC(N)=O)NC(=O)[C@H](CO)NC(=O)[C@@H](N)Cc1c[nH]cn1)[C@@H](C)O)[C@@H](C)O)C(=O)N[C@@H](C)C(=O)N[C@@H](Cc1ccc(O)cc1)C(=O)N[C@@H](CC(=O)O)C(=O)N[C@@H](Cc1ccccc1)C(=O)N[C@H](C(=O)N[C@@H](CCC(N)=O)C(=O)N[C@@H](Cc1c[nH]c2ccccc12)C(=O)N[C@@H](CC(C)C)C(=O)N[C@@H](CCSC)C(=O)N[C@@H](CC(N)=O)C(=O)N[C@H](C(N)=O)[C@@H](C)O)C(C)C [Peptide 33] (H-HSQGTFTSDYSKYLDSRMAYDFVQWLMNT-NH2)
8 | 8.96 ± 1.84 | > 200 | CSCC[C@H](NC(=O)[C@H](CO)NC(=O)[C@@H](NC(=O)[C@H](CCSC)NC(=O)[C@@H](NC(=O)[C@H](Cc1ccccc1)NC(=O)[C@H](CC(=O)O)NC(=O)[C@H](CCC(N)=O)NC(=O)[C@H](C)NC(=O)[C@H](CCCNC(=N)N)NC(=O)[C@H](CCCNC(=N)N)NC(=O)[C@H](CO)NC(=O)[C@H](CC(=O)O)NC(=O)[C@H](CC(C)C)NC(=O)[C@H](Cc1ccc(O)cc1)NC(=O)[C@H](CCCCN)NC(=O)[C@H](CO)NC(=O)[C@H](Cc1ccc(O)cc1)NC(=O)[C@H](CC(=O)O)NC(=O)[C@H](CO)NC(=O)[C@@H](NC(=O)[C@H](Cc1ccccc1)NC(=O)[C@@H](NC(=O)CNC(=O)[C@H](CCC(N)=O)NC(=O)[C@H](CO)NC(=O)[C@@H](N)Cc1c[nH]cn1)[C@@H](C)O)[C@@H](C)O)C(C)C)[C@@H](C)O)C(=O)N[C@@H](CC(N)=O)C(=O)N[C@H](C(N)=O)[C@@H](C)O [Peptide 26]
9 | 0.022 ± 0.001 | 0.014 ± 0.001 | CSCC[C@H](NC(=O)[C@H](CC(=O)O)NC(=O)[C@H](CC(C)C)NC(=O)[C@H](Cc1ccc(O)cc1)NC(=O)[C@H](CCCCN)NC(=O)[C@H](CO)NC(=O)[C@H](Cc1ccc(O)cc1)NC(=O)[C@H](CC(=O)O)NC(=O)[C@H](CO)NC(=O)[C@@H](NC(=O)[C@H](Cc1ccccc1)NC(=O)[C@@H](NC(=O)CNC(=O)[C@H](CCC(N)=O)NC(=O)[C@H](CO)NC(=O)[C@@H](N)Cc1c[nH]cn1)[C@@H](C)O)[C@@H](C)O)C(=O)N[C@@H](CCC(N)=O)C(=O)N[C@@H](CCCNC(=N)N)C(=O)N[C@@H](C)C(=O)N[C@@H](Cc1c[nH]cn1)C(=O)N[C@@H](CC(=O)O)C(=O)N[C@@H](Cc1ccccc1)C(=O)N[C@H](C(=O)N[C@@H](CCC(N)=O)C(=O)N[C@@H](Cc1c[nH]c2ccccc12)C(=O)N[C@@H](CC(C)C)C(=O)N[C@@H](CCSC)C(=O)N[C@@H](CC(N)=O)C(=O)N[C@H](C(N)=O)[C@@H](C)O)C(C)C [Peptide 32]
10 | 51.9 ± 57.7 | 0.027 ± 0.005 | CC(C)C[C@H](NC(=O)[C@H](Cc1ccc(O)cc1)NC(=O)[C@H](CCCCN)NC(=O)[C@H](CO)NC(=O)[C@H](Cc1ccc(O)cc1)NC(=O)[C@H](CC(=O)O)NC(=O)[C@H](CO)NC(=O)[C@H](Cc1ccccc1)NC(=O)[C@H](Cc1ccccc1)NC(=O)[C@@H](NC(=O)CNC(=O)[C@H](CCC(N)=O)NC(=O)[C@H](CO)NC(=O)[C@@H](N)Cc1c[nH]cn1)[C@@H](C)O)C(=O)N[C@@H](CC(=O)O)C(=O)N[C@@H](CO)C(=O)N[C@@H](CCCNC(=N)N)C(=O)N[C@@H](CCCNC(=N)N)C(=O)N[C@@H](C)C(=O)N[C@@H](CCC(N)=O)C(=O)N[C@@H](CC(=O)O)C(=O)N[C@@H](Cc1ccccc1)C(=O)N[C@H](C(=O)N[C@@H](CCC(N)=O)C(=O)N[C@@H](Cc1c[nH]c2ccccc12)C(=O)N[C@@H](CC(C)C)C(=O)N[C@@H](CC(C)C)C(=O)N[C@@H](CCC(=O)O)C(=O)N[C@H](C(N)=O)[C@@H](C)O)C(C)C [Peptide 34] (H-HSQGTFFSDYSKYLDSRRAQDFVQWLLET-NH2)
